In patent publication US8160709B2, “Use of electrical stimulation of the lower esophageal sphincter to modulate lower esophageal sphincter pressure” (Endostim, Inc., priority 2006, dated 2012):
Entries after “also recorded” stand apart in the source; their conditions may differ. Marks after values point to notes of the source that are not given here.

Test system: lower esophageal sphincter
Test: Lower esophageal sphincter pressure recording during NGES in anesthetized dogs, after L-NAME and atropine
Type: in vivo
Protocol: All recordings were performed one hour after consumption of three ounces of canned dog food to prevent fluctuations in lower esophageal sphincter pressure, and under mild sedation (acepromazine 0.5 mg/kg). During electrical stimulation days, tests consisted of three periods of 20 minutes each: […] Electrical stimulation was delivered using an external pulse generator. […] Area under the curve (“AUC”) and pressure were compared among the three periods. Data are shown as mean±SD, ANOVA and t-test, p<0.05. Three female mongrel dogs underwent continuous recording of lower esophageal sphincter pressure under anesthesia. NGES was delivered to the lower esophageal sphincter for 10 minutes at: […] Changes in lower esophageal sphincter pressure during NGES are presented as percent change from preceding baseline. Results (FIG. 6) are presented as mean±SD.

[1] = in words, anesthetized dogs, L-NAME 50 mg/kg, atropine 0.05 mg/kg in presence of L-NAME
[2] = in words, anesthetized dogs, L-NAME 50 mg/kg, atropine 0.05 mg/kg in presence of L-NAME, listed as atropine
[3] = LES pressure during NGES, percent change from preceding baseline, L-NAME 50 mg/kg, atropine 0.05 mg/kg in presence of L-NAME, mean (SD)
[4] = during NGES, L-NAME 50 mg/kg, atropine 0.05 mg/kg in presence of L-NAME, mean (SD)

SMILES | Effect on (baseline) lower esophageal sphincter pressure [1] | Effect on initial rise in lower esophageal sphincter pressure induced by NGES [1] | Effect on (baseline) lower esophageal sphincter pressure [2] | Effect on initial rise in lower esophageal sphincter pressure induced by NGES [2] | Initial Peak (% change) [3] | Relaxation (% change) [3] | Lower Esophageal Sphincter Pressure Baseline (anesthetized female mongrel dogs, L-NAME infusion 50 mg/kg, atropine 0.05 mg/kg in the presence of L-NAME, mean (SD)) | Peak Duration [4] | Relaxation Duration [4] | Effect on lower esophageal sphincter relaxation phase following NGES (in words, anesthetized dogs, L-NAME 50 mg/kg)
CN1[C@@H]2CC[C@H]1C[C@@H](OC(=O)C(CO)c1ccccc1)C2 (stereo partly drawn) [Atropine, atropine] | lowered | abolished | reduced | reduced |  |  |  |  |  | 
COC(=O)[C@@H](N)CCCNC(=N)N[N+](=O)[O-] [L-NAME] | increased | augmented; also recorded: enhanced |  |  | 76 (48.6) % change | 28.2 (34.1)** % change | 35.7 (5.1)* mmHg | 6.7 (3.9) sec | 4.4 (3.8) sec | markedly diminished or abolished; also recorded: markedly suppressed
